Results taken from US7276511B2, “Benzylamine derivative” (Zeria Pharmaceutical Co., Ltd., priority 2003, dated 2007).
Where a name gives a salt, the structure may show the parent alone. Read-outs that look alike come from different tables or passages of the source.

Legend:
[1] = molecular target: T1, NK-1 receptor (Homo sapiens, UniProt P25103); assay: NK-1 receptor-binding test ([3H]-Substance P, hNK1-CHO cells); set-up: expressed in transfected cells; host or cells: CHO-K1 cells (ATCC: CCL-61), G418-resistant, hNK1-CHO; conditions: inhibition of [3H]-Substance P (0.5 nM) binding to hNK1-CHO cells, pseudo-Hill analysis, read-out: NK-1
Procedure: 1. NK-1 Receptor-binding Test
1) Preparation of Human NK-1 Receptor Expression Cells
FuGene 6 transfection reagent (Boegringer Mannheim) (3 μL) was diluted in an F-12 culture broth (97 μL), and pCR3.1 plasmid to which human NK-1 receptor cDNA had been introduced (Invitrogen) (10 μL) was added thereto. The mixture was mixed and incubated for 15 minutes (transfection reagent). CHO-K1 cells (ATCC: CCL-61) were cultured for 24 hours, and the whole reagent prepared above was added to the cultured CHO-K1 cells ([…]). Subsequently, culture was performed in the presence of G418 (Stratagene), and the resistant cells were employed as cells into which human NK-1 receptor gene was introduced (hNK1-CHO).
2) Subcultivation of hNK1-CHO Cells
The hNK1-CHO cells were treated with trypsin-EDTA and subcultivated in an F-12 culture broth (containing 10% fetal bovine serum, 10 mM HEPES, 100 U/mL, penicillin, 100 μg/mL streptmycin, 400 μg/mL G418) in a 75-cm^2 flask (FALCON). Cells to be employed in the receptor-binding experiment were added to a 24-well plate (IWAKI) at 1×10^5 cells/well, and subcultured for 48 hours at 37° C. under 95% […] and 5% CO2.
3) Receptor-binding Experiment
When the hNK1-CHO cells became subconfluent on the 24-well plate, an F-12 culture broth (containing 10 mM HEPES and 0.1% fetal bovine serum) (450 μL), [^3H]-Substance P (Amersham, final concentration 0.5 nM), and a test compound were added to the cells, and the mixture was incubated for 40 minutes at 37° C. For the measurement of non-specific binding, L703606 (Sigma) was added instead of the test compound. After completion of incubation, the mixture was washed with ice-cooled phosphate buffered saline containing 0.1% fetal bovine serum, and the cells were lysed with 1N NaOH (0.5 mL). The lysate was transfered to a plastic vial containing UltimaGold MV (5 mL), and the radioactivity was determined by means of a liquid liquid scintillation counter (Packard, 2000CA).
(§1) Percent radioactive ligand-receptor binding inhibition of each test compound was calculated by use of the following equation, and IC50 (nM) was determined through pseudo-Hill analysis.
(§2) Percent inhibition (%)=[1−(C−A)/(B−A)]×100
(§3) A: Radioactivity attributed to non-specific binding
(§4) B: Radioactivity without test compound
(§5) C: Radioactivity with test compound
Target sequence in this assay (P25103 whole entry): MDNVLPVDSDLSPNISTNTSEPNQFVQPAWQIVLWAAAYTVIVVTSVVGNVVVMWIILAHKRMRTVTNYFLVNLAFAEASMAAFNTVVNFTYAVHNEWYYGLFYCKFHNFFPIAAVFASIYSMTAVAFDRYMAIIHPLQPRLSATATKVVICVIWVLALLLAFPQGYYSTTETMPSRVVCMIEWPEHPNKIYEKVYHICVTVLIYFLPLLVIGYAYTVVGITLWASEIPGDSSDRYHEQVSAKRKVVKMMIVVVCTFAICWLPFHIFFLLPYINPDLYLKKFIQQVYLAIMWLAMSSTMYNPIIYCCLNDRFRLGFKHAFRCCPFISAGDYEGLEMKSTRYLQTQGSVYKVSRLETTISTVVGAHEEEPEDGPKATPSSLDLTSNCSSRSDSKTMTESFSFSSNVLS

[2] = molecular target: T2, Cloned Neurokinin Receptor Subtype 2 Human (Homo sapiens, UniProt P21452); assay: NK-2 receptor-binding experiment ([3H]-SR48968, CHO cell membranes); conditions: Table 4; inhibition of [3H]-SR48968 (0.85 nM) binding, pseudo-Hill analysis
T2 construct: purchased Biosignal Packard; host or cells: CHO cells
T2 sequence (P21452 1-398): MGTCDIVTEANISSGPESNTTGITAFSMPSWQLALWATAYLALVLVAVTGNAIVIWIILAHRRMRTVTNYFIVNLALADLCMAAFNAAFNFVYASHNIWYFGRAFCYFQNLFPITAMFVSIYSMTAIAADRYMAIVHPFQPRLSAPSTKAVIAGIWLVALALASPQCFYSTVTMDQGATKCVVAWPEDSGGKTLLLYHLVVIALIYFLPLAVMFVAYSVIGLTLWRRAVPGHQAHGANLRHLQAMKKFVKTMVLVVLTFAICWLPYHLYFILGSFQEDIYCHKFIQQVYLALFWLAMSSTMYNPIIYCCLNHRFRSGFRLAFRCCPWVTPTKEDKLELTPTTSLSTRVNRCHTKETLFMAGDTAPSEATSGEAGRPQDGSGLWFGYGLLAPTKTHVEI
Procedure: 2. NK-2 Receptor-binding Experiment
Cloned Neurokinin Receptor Subtype 2 Human (CHO cells, Biosignal Packard), [^3H]-SR48968 (Amersham, final concentration 0.85 nM), and a test compound were mixed with 20 mM HEPES buffer, and the mixture was incubated for 50 minutes at 27° C. After completion of incubation, membrane components were collected by means of an automatic filtration apparatus (Brandel) onto a GF/C glass fiber filter (Whatman).
Before use, in order to prevent non-specific binding, the glass fiber filter had been pre-treated with 0.1% polyethylene imine solution for about 4 hours.
The filter employed to collect the membrane components was transferred to a plastic vial containing UltimaGold MV (5 mL), and measured by means of a liquid scintillation counter (Packard, 2000CA) in terms of the radioactivity.
as §1, §2, §3, §4, §5

[3] = molecular target: T1, NK-1 receptor; conditions: known from Patent Document 4; cited from earlier work
Target sequence in this assay (P25103 whole entry, species assumed): as the sequence (P25103 whole entry) above

[4] = molecular target: T3, NK-2 receptor (Homo sapiens, UniProt P21452); conditions: in vitro for (B); known from Patent Documents 2 and 4; cited from earlier work
T3 sequence (P21452 1-398): T2 sequence (P21452 1-398)

Compound	IC50 ([1]; Table 4)	IC50 [2]	antagonistic activity against NK-1 receptor [3]	antagonistic activity against NK-2 receptor [4]	IC50 ([1]; Table 2)
CN(C[C@](CCN1CCC2(CC1)NC(=O)Cc1ccccc12)(c1ccc(Cl)c(Cl)c1)N(C)C(=O)NC(c1ccccc1)c1ccccc1)C(=O)C(F)(F)F [Compound No. 46, 1-{1-(2,2,2-trifluoro-N-methylacetamide)-2-(S)-(3,4-dichlorophenyl)-4-[3-oxo-3,4-dihydro-2H-spiro(isoquinoline-1,4′-piperidin)-1′-yl]butan-2-yl}-3-benzhydryl-1-methylurea sulfate]	10.1 nM	1.8 nM	–	–	–
CC(=O)NC1(c2ccccc2)CCN(CCC(CN(C)C(=O)C(F)F)(c2ccc(Cl)c(Cl)c2)N(C)C(=O)NC(c2ccccc2)c2ccccc2)CC1 (stereo not shown) [Compound No. 12, N-[4-(4-Acetylamino-4-phenyl-piperidine-1′-yl)-2-(3-benzhydryl-1-methyl-ureido)-2-(3,4-dichlorophenyl)-butyl]-2,2-difluoro-N-methyl-acetamide hydrochloride]	11 nM	6.1 nM	–	–	–
CN(CC(CCN1CCC2(CC1)c1ccccc1C[S+]2[O-])(c1ccc(Cl)c(Cl)c1)N(C)C(=O)CC(c1ccccc1)c1ccccc1)C(=O)CC(F)(F)F [Compound No. 1, N-{2-(3,4-dichlorophenyl)-2-[(3,3-diphenylpropionyl)-methylamino]-4-{spiro[benzo(c)thiophene-1(3H),4′-piperidine]-(2S)-oxide}-1′-yl-butyl}-3,3,3-trifluoro-N-methyl-propionamide hydrochloride]	1.2 nM	1.6 nM	–	–	–
COc1cc(C(=O)N2CCO[C@](CCN3CCCC4(C3)c3ccccc3C[S+]4[O-])(c3ccc(Cl)c(Cl)c3)C2)cc(OC)c1OC (stereo partly shown) [(D)]	–	–	excellent antagonistic activity	excellent antagonistic activity	–
CC(C)C(=O)N(C)CC(CCN1CCC2(CC1)c1ccccc1C[S+]2[O-])(c1ccc(Cl)c(Cl)c1)N(C)C(=O)CC(c1ccccc1)c1ccccc1 [Compound No. 2, N-{2-(3,4-dichlorophenyl)-2-[(3,3-diphenylpropionyl)-methylamino]-4-{spiro[benzo(c)thiophene-1(3H),4′-piperidine]-(2S)-oxide}-1′-yl-butyl}-N-methyl-isobutylamide hydrochloride]	4.3 nM	2.1 nM	–	–	–
CC(C)C(=O)N(C)C[C@](CCN1CCC2(CC1)c1ccccc1C[S@+]2[O-])(c1ccc(Cl)c(Cl)c1)N(C)C(=O)CC(c1ccccc1)c1ccccc1 [Compound No. 45, N-{2-(S)-(N-methyl-3,3-diphenylpropanamido)-2-(3,4-dichlorophenyl)-4-[spiro(benzo(c)thiophene-(2S)-oxido-1(3H),4′-piperidin)-1′-yl]butyl}-N-methyl-isobutylamide hydrobromide]	4.9 nM	2.8 nM	–	–	–
CN(C[C@](CCN1CCC2(CC1)c1ccccc1C[S@+]2[O-])(c1ccc(Cl)c(Cl)c1)N(C)C(=O)C(c1ccccc1)c1ccccc1)C(=O)CC(F)(F)F [Compound No. 42, N-{2-(S)-(N-methyl-2,2-diphenylacetamide)-2-(3,4-dichlorophenyl)-4-[spiro(benzo(c)thiophene-(2S)-oxido-1(3H),4′-piperidin)-1′-yl]butyl}-3,3,3-trifluoro-N-methylpropanamido hydrochloride]	2.1 nM	4 nM	–	–	–
CN(C[C@@H](CCN1CCC2(CCc3ccccc32)CC1)c1ccc(Cl)c(Cl)c1)C(=O)c1ccccc1 [compound (B), reference compound]	–	–	–	exhibits antagonistic activity only to NK-2 receptor	–
CC(C)C(=O)N(C)C[C@](CCN1CCC2(CC1)NC(=O)Cc1ccccc12)(c1ccc(Cl)c(Cl)c1)N(C)C(=O)NC(c1ccccc1)c1ccccc1 [Compound No. 44, 1-{1-(N-methyl-isobutylamide)-2-(S)-(3,4-dichlorophenyl)-4-[3-oxo-3,4-dihydro-2H-spiro(isoquinoline-1,4′-piperidin)-1′-yl]butan-2-yl}-3-benzhydryl-1-methylureahydrochloride]	11 nM	2.4 nM	–	–	–
CCC(=O)N(C)CC(CCN1CCC2(CC1)c1ccccc1C[S+]2[O-])(c1ccc(Cl)c(Cl)c1)N(C)C(=O)CC(c1ccccc1)c1ccccc1 [Compound No. 5, N-{2-(3,4-dichlorophenyl)-2-[(3,3-diphenylpropionyl)-methylamino]-4-{spiro[benzo(c)thiophene-1(3H),4′-piperidine]-(2S)-oxide}-1′-yl-butyl}-N-methyl-propionamide hydrochloride]	6.3 nM	1.9 nM	–	–	–
CN(C[C@](CCN1CCC2(CC1)NC(=O)Cc1ccccc12)(c1ccc(Cl)c(Cl)c1)N(C)C(=O)C(c1ccccc1)c1ccccc1)C(=O)CC(F)(F)F [Compound No. 43, N-{2-(S)-(N-methyl-2,2-diphenylacetamide)-2-(3,4-dichlorophenyl)-4-[3-oxo-3,4-dihydro-2H-spiro(isoquinoline-1,4′-piperidin)-1′-yl]butyl}-3,3,3-trifluoro-N-methylpropanamido hydrochloride]	7.7 nM	2.1 nM	–	–	–
CN(CC(CCN1CCC2(CC1)c1ccccc1C[S@+]2[O-])(c1ccc(Cl)c(Cl)c1)N(C)C(=O)NC(c1ccccc1)c1ccccc1)C(=O)C(F)(F)Cl (stereo partly drawn) [Compound No. 4, N-{2-(3-benzohydryl-1-methylureido)-2-(3,4-dichlorophenyl)-4-{spiro[benzo(c)thiophene-1(3H),4′-piperidine]-(2S)-oxide}-1′-yl-butyl}-2-chloro-2,2-difluoro-N-methyl-acetamide hydrochloride]	3.4 nM	1.5 nM	–	–	–
COc1cc(C(=O)N(C)CC(CCN2CCC(C(N)=O)(c3ccccc3)CC2)(c2ccc(Cl)c(Cl)c2)N(C)C(=O)Oc2ccccc2)cc(OC)c1OC (racemic) [Compound No. 16, (3-(4-Carbamoyl-4-phenyl-piperidine-1-yl)-1-(3,4-dichloro-phenyl)-1-{[methyl-(3,4,5-trimethoxy-benzoyl)-amino]-methyl}-propyl)-methyl-carbamic acid phenyl ester hydrochloride]	–	–	–	–	3.5 nM
COc1cc(COC[C@](CCCN2CCC3(CC2)c2ccccc2C[S@+]3[O-])(c2ccc(Cl)c(Cl)c2)N(C)C(=O)NCc2cccc(F)c2)cc(OC)c1OC [Compound No. 618, 1-{1-(3,4,5-trimethoxybenzyloxy)-2-(S)-(3,4-dichlorophenyl)-5-[spiro(benzo(c)thiophene(2S)-oxido-1(3H),4′-piperidin)-1′-yl]pentan-2-yl}-3-(3-fluorobenzyl)-1-methylurea hydrochloride]	–	–	–	–	1.2 nM
